Values joined by “and” are separate entries in the source; they are usually repeats but may differ in a detail not shown here. Equal values may be shown once. Read-outs that look alike come from different tables or passages of the source.
Tests used:
[1] = Oral pharmacokinetics (plasma salicylate by HPLC); settings: rats, 35 mg/kg equivalent dose
mucosal damage = settings: rats, oral, 3 hours after administration
[2] = tested on: carrageenan-induced rat paw edema; assay: Carrageenan-induced rat paw edema model; assay type: in vivo; settings: 75 mg/kg equivalent dose of aspirin, p.o.
Protocol: Male or female Sprague-Dawley rats weighing 150-200 g were used in the study. The rats were fed normal standard laboratory chow and maintained under standard conditions (room temperature of 22 ± 2 °C; 50 ± 10 % relative humidity; artificial light 06:00 to 18:00). All experimental procedures mentioned below are approved by institutional animal research committees and were performed in accordance with standard guidelines for the treatment of animals.
Anti-inflammatory activity of test compounds was measured in carrageenan-induced rat paw edema model (Takeuchi et al., J. Pharmacol. Exp. Ther. 1998, 286 (1), 115-121). […] We have not yet evaluated I-C1-NOPD5Bin this efficacy test.

[3] = In vitro plasma stability; settings: rat plasma at 37 °C, 30 minutes incubation, HPLC analysis
Protocol: HPLC: Waters Allience analytical HPLC equipped with 2996 PDA detector and Empower software were used to analyze the samples.
HPLC Column: Waters X-Terra RP-18 analytical column, 150 X 3.9 mm, 5 .
HPLC Method: Flow: 1 mL/min, detecter set at 210 nm and at Maxplot (210-400 nm range). Solvent A: Acetonitrile; Solvent B: 0.1% TFA in water. Elution method: A linear gradient of 0-100% A.
The compounds were extracted back into acetonitrile with rigorous vortex.

clonic seizures [4] = assay: Test 3: scMET, rats p.o.; assay type: in vivo; settings: 50 mg/kg
Protocol: (§1) Subcutaneous Metrazol Seizure Threshold Test (scMET): Subcutaneous injection of the convulsant metrazol produces clonic seizures in laboratory animals. […] Animals were pretreated with various doses of the test compound given by i.p. injection. At the previously determined Time to Peak Effect (TPE) of the test compound, the dose of metrazol which will produce convulsions in 97% of animals (CD97: 85 mg/kg in mice) was injected into a loose fold of skin in the midline of the neck. The animals were placed in isolation cages to minimize stress and observed for the next 30 minutes for the presence or absence of a seizure. An episode of clonic spasms, approximately […], of the fore and/or hind limbs, jaws, or vibrissae is taken as the end point.
(§2) Rats received test compounds orally.
(§3) Table 1: Primary Screening (Test 1) data for Anticonvulsant Activity and Neurotoxicity in Mice (test compound administered i.p.)

Neurological toxicity [5] = assay: Test 2: neurological toxicity, rats p.o.; assay type: in vivo; settings: 30 mg/kg
Source text: as §2

MES-induced seizures [6] = assay: Test 2: MES, rats p.o.; assay type: in vivo; settings: 30 mg/kg
Source text: (§4) Maximal Electroshock Test (MES): The MES is a model for generalized tonic-clonic seizure and provides an indication of a compound's ability to prevent seizure spread when all neuronal circuits in the brain are maximally active. These seizures are highly reproducible and electro-physiologically consistent with human seizures. For all tests based on MES convulsions, 60 Hz of alternating current (50 mA in mice) is delivered for […] by corneal electrodes, which have been primed with an electrolyte solution containing an anesthetic agent (0.5% tetracaine hydrochloride). Mice were tested at various intervals following doses of 30, 100 and 300 mg/kg of test compound given by i.p. injection of a volume of 0.01 mL/g. Other doses can be used if indicated by previously known pharmacology. An animal is considered "protected" from MES-induced seizures upon abolition of the hind-limb tonic extensor component of the seizure.
as §2

clonic seizures [7] = assay: Test 1: Subcutaneous Metrazol Seizure Threshold Test (scMET), mice i.p.; assay type: in vivo; settings: class symbol = dose
Protocol: (§5) Most of the prodrugs and mutual prodrugs of anticonvulsants described in this invention were evaluated at National Institute of Neurological Disorders and Stroke (NINDS), National Institute of Health (NIH), under their Antiepileptic Screening Program (ASP).
(§6) Test 1 is an initial screening for anticonvulsant activity in the Maximal Electroshock Test (MES) and Subcutaneous Metrazol Seizure Threshold Test (scMET) models combined with an initial assessment of toxicity (TOX) in mice via i.p. injection (see further explanation below). The data for each condition is presented as N/F, where N = number of animals protected from seizure and F = number of animals tested. For test of toxicity, N = number of animals displaying toxic effects and F = number of animals tested. Any deaths occurring during the test were recorded.
as §1

Neurological toxicity [8] = assay: Test 3: neurological toxicity, rats p.o.; assay type: in vivo
Source text: as §2, §3

MES-induced seizures [9] = assay: Test 1: Maximal Electroshock Test (MES), mice i.p.; assay type: in vivo; settings: for MES: class symbol = dose
Protocol: as §5, §6, §4

[10] = tested on: minimal muscular or neurological impairment; assay: Test 1: Acute toxicity, minimal motor impairment (rotorod), mice i.p.; assay type: in vivo; settings: for Rotorod Toxicity: class symbol = dose
Protocol: as §5, §6

MES-induced seizures [11] = assay: Test 3: MES quantification (time to peak effect, ED50), rats p.o.; assay type: in vivo; settings: for Biological Response MES (number of animal protected/number of animal tested): time 6 h

## CC(=O)Oc1ccccc1C(=O)NCCSSCCO[N+](=O)[O-] [I-C1-NOPD6]
[1]; any time point up to 24 hrs
  prodrug or salicylate found in plasma: neither the prodrug nor the salicylate was found in the plasma
Mucosal damage; 100 mg/kg equivalent doses
  ulcer development (in words): none of the animals treated with the test compounds showed any signs of development of ulcers

## CC(=O)Oc1ccccc1C(=O)OCCSSCCO[N+](=O)[O-] [I-C1-NOPD4]
[2]
  anti-inflammatory activity (in words): significant activity during the first two hours after drug administration
[3]
  release of parent drug / conversion to salicylate: converting to the expected metabolite (salicylate)
Mucosal damage; 100 mg/kg equivalent doses
  ulcer development (in words): none of the animals treated with the test compounds showed any signs of development of ulcers

## CCOC(=O)CC1(CNC(=O)OCCSSCCOC(=O)Nc2nnc(-c3cccc(Cl)c3Cl)c(N)n2)CCCCC1 [I-AA-MPD12]
Clonic seizures [4]; 1.0 h
  Time to Peak Effect ScMET (number of animal protected/number of animal tested): 1/4
Clonic seizures [4]; 2.0 h
  Time to Peak Effect ScMET (number of animal protected/number of animal tested): 0/4
Clonic seizures [4]; 4.0 h
  Time to Peak Effect ScMET (number of animal protected/number of animal tested): 0/4
Clonic seizures [4]; 6.0 h
  Time to Peak Effect ScMET (number of animal protected/number of animal tested): 1/4
Clonic seizures [4]; 8.0 h
  Time to Peak Effect ScMET (number of animal protected/number of animal tested): 2/4
Clonic seizures [4]; 24 h
  Time to Peak Effect ScMET (number of animal protected/number of animal tested): 0/4
Neurological toxicity [5]; 0.50 h
  Toxicity (number of animals exhibiting toxicity/number of animals tested): 0/4
Neurological toxicity [5]; 1.00 h
  Toxicity (number of animals exhibiting toxicity/number of animals tested): 0/4
Neurological toxicity [5]; 2.00 h
  Toxicity (number of animals exhibiting toxicity/number of animals tested): 0/4
Neurological toxicity [5]; 4.00 h
  Toxicity (number of animals exhibiting toxicity/number of animals tested): 0/4
MES-induced seizures [6]; 0.50 h
  MES (number of animal protected/number of animal tested): 0/4
MES-induced seizures [6]; 1.00 h
  MES (number of animal protected/number of animal tested): 0/4
MES-induced seizures [6]; 2.00 h
  MES (number of animal protected/number of animal tested): 1/4
MES-induced seizures [6]; 4.00 h
  MES (number of animal protected/number of animal tested): 3/4
Clonic seizures [7]; 0.5 h
  ScMET: - (- = no activity or no toxicity at 300 mg/kg)
Clonic seizures [7]; 4.0 h
  ScMET: - (- = no activity or no toxicity at 300 mg/kg)
Neurological toxicity [8]; 50 mg/kg
  toxicity (in words): none of the animals exhibited toxicity
Neurological toxicity [8]; 50 mg/kg, 1.0 h
  Toxicity (number of animals exhibiting toxicity/number of animals tested): 0/4 (5 0)
Neurological toxicity [8]; 50 mg/kg, 2.0 h
  Toxicity (number of animals exhibiting toxicity/number of animals tested): 0/4 (50)
Neurological toxicity [8]; 50 mg/kg, 4.0 h
  Toxicity (number of animals exhibiting toxicity/number of animals tested): 0/4 (50)
Neurological toxicity [8]; 50 mg/kg, 6.0 h
  Toxicity (number of animals exhibiting toxicity/number of animals tested): 0/4 (50)
Neurological toxicity [8]; 50 mg/kg, 8.0 h
  Toxicity (number of animals exhibiting toxicity/number of animals tested): 0/4 (50)
Neurological toxicity [8]; 50 mg/kg, 24 h
  Toxicity (number of animals exhibiting toxicity/number of animals tested): 0/4 (50)
Neurological toxicity [8]; 100 mg/kg
  toxicity (in words): one of eight animals exhibited mild ataxia
Neurological toxicity [8]; 100 mg/kg, 8.0 h, mild ataxia only (footnote h)
  Toxicity (number of animals exhibiting toxicity/number of animals tested): 1/8 (100)^h
MES-induced seizures [9]
  activity in MES (Test 1, in words): active in MES
MES-induced seizures [9]; 100 mg/kg (++), 4.0 h
  MES (number of animal protected/number of animal tested): 3/3
MES-induced seizures [9]; 100 mg/kg (++), 6 hours after dosing
  MES (number of animal protected/number of animal tested): 1/3
MES-induced seizures [9]; 300 mg/kg (+), 4.0 h
  MES (number of animal protected/number of animal tested): 1/1
MES-induced seizures [9]; 0.5 h
  MES: - (- = no activity or no toxicity at 300 mg/kg)
MES-induced seizures [9]; at 6 hours after dosing (footnotes g, m)
  MES: ++ (++ = activity or toxicity at 100 mg/kg)
[10]
  toxicity (Test 1, in words): no or mild toxicity
[10]; 0.5 h
  Rotorod Toxicity: - (- = no activity or no toxicity at 300 mg/kg)
[10]; 4.0 h
  Rotorod Toxicity: - (- = no activity or no toxicity at 300 mg/kg)
MES-induced seizures [11]; 15 mg/kg, 6.0 h
  Time to Peak Effect MES (number of animal protected/number of animal tested): 2/4
MES-induced seizures [11]; 15 mg/kg, 8.0 h
  Time to Peak Effect MES (number of animal protected/number of animal tested): 1/4
MES-induced seizures [11]; 30 mg/kg, 0.5 h
  Time to Peak Effect MES (number of animal protected/number of animal tested): 0/4
MES-induced seizures [11]; 30 mg/kg, 1.0 h
  Time to Peak Effect MES (number of animal protected/number of animal tested): 0/4
MES-induced seizures [11]; 30 mg/kg, 2.0 h
  Time to Peak Effect MES (number of animal protected/number of animal tested): 1/4
MES-induced seizures [11]; 30 mg/kg, 4.0 h
  Time to Peak Effect MES (number of animal protected/number of animal tested): 3/4
MES-induced seizures [11]; 30 mg/kg, 6.0 h
  Time to Peak Effect MES (number of animal protected/number of animal tested): 4/4
MES-induced seizures [11]; 30 mg/kg, 8.0 h
  Time to Peak Effect MES (number of animal protected/number of animal tested): 4/4
MES-induced seizures [11]; 30 mg/kg, 24 h
  Time to Peak Effect MES (number of animal protected/number of animal tested): 2 out of 4 and 2/4
MES-induced seizures [11]; MES
  potency compared with parent drug lamotrigine (in words): less potent than lamotrigine
MES-induced seizures [11]; MES model, at the compound's time of peak effect (4, 6 or 8 h)
  ED50: 17 mg/kg
MES-induced seizures [11]; MES, 30 mg/kg, up to 24 h
  duration of protection (in words): significant extension in the duration of protection
MES-induced seizures [11]; MES, dose of 30 mg/kg
  time to peak effect: 6.0 to 8.0 h
MES-induced seizures [11]; dose 7.5 mg/kg
  Biological Response MES (number of animal protected/number of animal tested): 0/8
MES-induced seizures [11]; dose 15 mg/kg
  Biological Response MES (number of animal protected/number of animal tested): 5/8
MES-induced seizures [11]; dose 30 mg/kg
  Biological Response MES (number of animal protected/number of animal tested): 7/8
MES-induced seizures [11]; dose 60 mg/kg
  Biological Response MES (number of animal protected/number of animal tested): 7/8

## CC(=O)Oc1ccccc1C(=O)NC(=O)OCCSSCCO[N+](=O)[O-] [I-C1-NOPD5A]
[2]
  anti-inflammatory activity (in words): negligible anti-inflammatory activity at any time point tested
[3]
  release of parent drug / conversion to salicylate: converting to the expected metabolite (salicylate)
Mucosal damage; 200 mg/kg equivalent doses
  ulcer development (in words): none of the animals treated with the test compounds showed any signs of development of ulcers

## CC(=O)Oc1ccccc1C(=O)[N-]C(=O)OCCSSCCO[N+](=O)[O-].[Na+] [I-C1-NOPD5B]
[1]
  salicylate release profile (in words): released in a sustained and controlled manner starting from 1 hour through 12 hours
Mucosal damage; 200 mg/kg equivalent doses
  ulcer development (in words): none of the animals treated with the test compounds showed any signs of development of ulcers

Reference: patent publication EP2266622A2, “Prodrugs containing novel bio-cleavable linkers” (Piramal Life Sciences Limited, priority 2004, dated 2006)
